In patent publication US6858641B2, “Substituted indolinones” (Boehringer Ingelheim Pharma KG, priority 2001, dated 2005):
pIC50: −log10 of the molar value.

System: Human umbilical endothelial cells (HUVEC)
Assay: Inhibition of VEGF165-stimulated HUVEC proliferation (3H-thymidine incorporation)
Type: cell-based
Details: HUVEC stimulated with 5 ng/ml VEGF165 and 10 μg/ml heparin; 76 hours incubation then 16 hours 3H-thymidine; concentration inhibiting proliferation by 50%
Protocol: Human umbilical endothelial cells (HUVEC) were cultivated in IMDM (Gibco BRL), supplemented with 10% foetal calf serum (FBS) (Sigma), 50 μM of β-mercaptoethanol (Fluka), standard antibiotics, 15 μg/ml of endothelial cell growth factor (ECGS, Collaborative Biomedical Products) and 100 μg/ml of heparin (Sigma) on gelatine-coated culture dishes (0.2% gelatine, Sigma) at 37° C., under 5% CO2 in a water-saturated atmosphere.
In order to investigate the inhibitory activity of the compounds according to the invention the cells were “starved” for 16 hours, i.e. kept in culture medium without growth factors (ECGS+heparin). The cells were detached from the culture dishes using trypsin/EDTA and washed once in serum-containing medium. Then they were seeded out in amounts of 2.5×10^3 cells per well.
The proliferation of the cells was stimulated with 5 ng/ml of VEGF165 (vascular endothelial growth factor; H. Weich, GBF Braunschweig) and 10 μg/ml of heparin. As a control, 6 wells in each dish were not stimulated.
The compounds according to the invention were dissolved in 100% dimethylsulphoxide and added to the cultures in various dilutions as triple measurements, the maximum dimethylsulphoxide concentration being 0.3%.
The cells were incubated for 76 hours at 37° C., then for a further 16 hours ^3H-thymidine (0.1 μCi/well, Amersham) was added in order to determine the DNA synthesis. Then the radioactively labelled cells were immobilised on filter mats and the radioactivity incorporated was measured in a β-counter. In order to determine the inhibitory activity of the compounds according to the invention the mean value of the non-stimulated cells was subtracted from the mean value of the factor-stimulated cells (in the presence or absence of the compounds according to the invention).
The relative cell proliferation was calculated as a percentage of the control (HUVEC without inhibitor) and the concentration of active substance which inhibits the proliferation of the cells by 50% (IC50) was determined.

| Compound | pIC50 |
| --- | --- |
| methyl 3-(Z)-[1-{4-[(4-hydroxy-piperidin-1-yl)-carbonyl]-phenylamino}-1-phenyl-methylidene]-2-indolinone-6-carboxylate [(d)] | 7.30 |
| methyl 3-(Z)-[1-{4-[(4-ethyl-piperazin-1-yl)-carbonyl]-phenylamino}-1-phenyl-methylidene]-2-indolinone-6-carboxylate [(h)] | 7.70 |
| methyl 3-(Z)-[1-{4-[(4-(2-hydroxy-ethyl)-piperazin-1-yl)-carbonyl]-phenylamino}1-phenyl-methylidene]-2-indolinone-6-carboxylate [(i)] | 7.70 |
| COC(=O)c1ccc2c(c1)NC(=O)/C2=C(\Nc1ccc(C(=O)N(C)CCCN(C)C)cc1)c1ccccc1 [(b), methyl 3-(Z)-[1-{4-[N-(3-dimethylamino-propyl)-N-methyl-carbamoyl]-phenylamino}-1-phenyl-methylidene]-2-indolinone-6-carboxylate] | 7.70 |
| COC(=O)c1ccc2c(c1)NC(=O)/C2=C(\Nc1ccc(C(=O)N(C)CCN(C)C)cc1)c1ccccc1 [(a), methyl 3-(Z)-[1-{4-[N-(2-dimethylamino-ethyl)-N-methyl-carbamoyl]-phenylamino}-1-phenyl-methylidene]-2-indolinone-6-carboxylate] | 7.40 |
| methyl 3-(Z)-[1-{4-[(4-methyl-piperazin-1-yl)-carbonyl]-phenylamino}-1-phenyl-methylidene]-2-indolinone-6-carboxylate [(c)] | 7.52 |
